Laboratory results reported in PMC3736441 (Marine Drugs, 2013).

Columns and labels:
[1] = target: α-acetylcholinesterase (AChE) (Homo sapiens, UniProt P22303); assay: biochemical; assay type: biochemical; conditions: phosphate buffer pH 7.0, 37 °C, triplicate; for IC50: read-out: Inhibition of AChE IC50; on all read-outs here: key: '-' as 'no action'
Procedure: α-Acetylcholinesterase inhibitory activity was assayed using 50 mM phosphate buffer (pH 7.0). […] 10 μL of sample solution and 10 μL of α-acetylcholinesterase solution (2 units mL^−1, in the phosphate buffer at pH 7.0) were added to 960 μL of phosphate buffer and incubated at 37 °C for 30 min, and then 20 μL of substrate were added to initiate the enzyme reaction. The enzyme reaction was carried out at 37 °C for 30 min. Product was monitored spectrophotometrically by measuring the absorbance (λ = 400 nm). Huperzine A was used as reference standard inhibitor for comparison. Dose-response curves were obtained by performing assays in the presence of increasing concentrations of inhibitors. IC50 value was determined by interpolation of the dose-response curves. For all tests, the inhibition assays were performed in triplicate.

[2] = test system: human nasopharyngeal carcinoma cells (KB); conditions: MTT
Procedure: (§1) IC50 of these compounds were determined by the MTT assay (see Table 2).
(§2) The cytotoxic activities were determined using MCF-7, A549, Hela, KB human tumor cells by the MTT colorimetric method. […] Subsequently 20 μL of MTT solution (5 mg/mL) were added to each well and mixed, the cells were then incubated for an additional 4 h. Culture supernatant were removed, 150 μL of DMSO were added to each well to fully dissolve the MTT—formazan crystals. Cell growth inhibition was determined by measuring the absorbance (Abs) at λ = 570 nm using a microplate reader and calculated according to the following equation: Growth inhibition = (1 − OD of treated cells/OD of control cells) × 100% (1)
(§3) The half maximal inhibitory concentrations (IC50) were obtained from linear regression analysis of the concentration-response curves plotted for each tested compound (Bliss’s software). Results were expressed as the mean value of triplicate data points.

lung cancer cells (A549) = conditions: MTT
Procedure: as §1, §2, §3

[3] = test system: cervix carcinoma cells (Hela); assay: in vitro; conditions: Hela cells, MTT
Procedure: as §1, §2, §3

[4] = test system: human breast cancer cells (MCF-7); assay: in vitro; conditions: MCF-7 cells, MTT
Procedure: as §1, §2, §3

in vitro = conditions: human
Procedure: as §1, §2, §3

Chain of α-acetylcholinesterase (AChE) (P22303 32-614): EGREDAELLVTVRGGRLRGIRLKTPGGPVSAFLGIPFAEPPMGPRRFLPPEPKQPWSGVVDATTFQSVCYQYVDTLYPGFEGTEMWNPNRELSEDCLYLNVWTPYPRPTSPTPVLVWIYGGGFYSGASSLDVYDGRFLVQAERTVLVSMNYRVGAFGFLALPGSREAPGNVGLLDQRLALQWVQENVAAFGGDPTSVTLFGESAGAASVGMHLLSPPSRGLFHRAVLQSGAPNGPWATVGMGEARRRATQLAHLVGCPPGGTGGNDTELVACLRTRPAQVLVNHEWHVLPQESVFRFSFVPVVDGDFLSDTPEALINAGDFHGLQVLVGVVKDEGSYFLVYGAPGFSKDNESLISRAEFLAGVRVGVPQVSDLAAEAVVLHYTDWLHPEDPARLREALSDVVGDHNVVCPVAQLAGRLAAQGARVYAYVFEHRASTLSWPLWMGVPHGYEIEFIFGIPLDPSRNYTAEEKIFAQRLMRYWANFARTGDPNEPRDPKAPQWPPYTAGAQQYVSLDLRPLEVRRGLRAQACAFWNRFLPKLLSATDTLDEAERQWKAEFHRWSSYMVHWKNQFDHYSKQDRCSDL

Structure (SMILES)	IC50 [1]	Cytotoxicity IC50 KB [2]	cytotoxic / inhibitory activity against KB (in words) [2]	Cytotoxicity IC50 A549 (lung cancer cells (A549))	cytotoxic / inhibitory activity against A549 (in words) (lung cancer cells (A549))	Cytotoxicity IC50 Hela [3]	cytotoxic / inhibitory activity against Hela (in words) [3]	Cytotoxicity IC50 MCF-7 [4]	cytotoxic / inhibitory activity against MCF-7 (in words) [4]	IC50 (in vitro; Cytotoxicity IC50 Hela)	IC50 (in vitro; Cytotoxicity IC50 MCF-7)	Inhibition of AChE IC50 [1]	IC50 (in vitro; Cytotoxicity IC50 Hela, Hela cells, MTT)	IC50 (in vitro; Cytotoxicity IC50 MCF-7, MCF-7 cells, MTT)
CC(=O)O[C@H]1C[C@H]2[C@H]3[C@H]([C@@H](O)C[C@]2(C)[C@H]1[C@H](C)/C=C/[C@H](C)C(C)C)[C@@]1(C)CC[C@H](O)C[C@@H]1C(=O)[C@@H]3O [Compound 9, NGA0187]	1890 nM	-	no inhibitory activities	-	no inhibitory activities	-	no inhibitory activities	-	no inhibitory activities					
COc1cccc2c1C(=O)c1c(O)c3c(c(O)c1C2=O)C[C@@](O)(C(=O)CO)C[C@@H]3O[C@H]1C[C@H](N)[C@@H](O)[C@H](C)O1 [Epirubicin, reference compound]										1070 nM	420 nM			
COc1cc(OC)c2c(c1O)C(=O)C(CC(C)=O)=C(C)C2=O [Compound 4, 8-O-methyljavanicin]		-	no inhibitory activities	-	no inhibitory activities	-	no inhibitory activities	-	no inhibitory activities			-		
COc1cc(OC)c2c(c1O)C(=O)c1sc(C(C)O)cc1C2=O (centres unmarked) [Compound 1, 8-hydroxy-2-[1-hydroxyethyl]-5,7-dimethoxynaphtho[2,3-b] thiophene-4,9-dione]		-	no inhibitory activities	-	no inhibitory activities	-	no inhibitory activities	-	no inhibitory activities			-		
CCc1c(OC)cc2c(c1O)C(=O)C(OC)=CC2=O [Compound 6, 6-ethyl-5-hydroxy-3,7-dimethoxynaphthoquinone]		-	no inhibitory activities	-	no inhibitory activities	-	no inhibitory activities	-	no inhibitory activities			-		
COc1cc(OC)c2c(c1O)C(=O)c1cc(C)ncc1C2=O [Compound 3, 8-O-methylbostrycoidin]	6710 nM	-	no inhibitory activities	-	no inhibitory activities	-	no inhibitory activities	-	no inhibitory activities					
CC(C)[C@@H](C)/C=C/[C@@H](C)[C@H]1CC[C@@]2(O)C3=CC(=O)[C@@]4(O)C[C@@H](O)CC[C@]4(C)[C@H]3CC[C@]12C [Compound 8, 3β,5α,14α-trihydroxy-(22E,24R)-ergosta-7,22-dien-6-one]			weak inhibitory activities		weak inhibitory activities		weak inhibitory activities		weak inhibitory activities			-	25400 nM	24400 nM
COC1=CC(=O)c2c(O)c(C)c3c(c2C1=O)O[C@@H](C)C3 [Compound 2, anhydrojavanicin]	2010 nM	-	no inhibitory activities	-	no inhibitory activities	-	no inhibitory activities	-	no inhibitory activities					
CCc1c(OC)cc2c(c1O)C(=O)C[C@H](O)[C@H]2O [Compound 5, botryosphaerone D]		-	no inhibitory activities	-	no inhibitory activities	-	no inhibitory activities	-	no inhibitory activities			-		
CC(C)[C@@H](C)/C=C/[C@@H](C)[C@H]1CC[C@H]2C3=CC(=O)[C@@]4(O)C[C@@H](O)CC[C@]4(C)[C@H]3CC[C@]12C [Compound 7, 3β,5α-dihydroxy-(22E,24R)-ergosta-7,22-dien-6-one]			strong or moderate cytotoxic activies		strong or moderate cytotoxic activies		strong or moderate cytotoxic activies		strong or moderate cytotoxic activies			-		
